Experimental findings from US11634458B2, “Peptides and compositions for use in cosmetics and medicine” (LIPOTRUE, S.L., priority 2018, dated 2023) are described below.

“Also recorded” adds a separate entry of the source.

In one assay the test system is LAN cells. As to the kind of experiment: Measurement of acetylcholine release in differentiated LAN cells stimulated with 50 mM KCl. The assay is classed as cell-based. The settings on record: 1 hour treatment, 0.001, 0.005 and 0.01 mg/mL (Ac-SEQ ID NO: 8-NH2: 0.005 and 0.05 mg/mL). The method, then: Said peptides were tested for their ability to modulate acetylcholine release in vitro. To that end, LAN cells were seeded on 48-well culture plates and allowed to reach the appropriate confluence under controlled conditions (37° C., 5% CO2) before inducing differentiation by replacing the culture media with Neurobasal® A media, supplemented with N-2 Supplement, GlutaMAX™, choline chloride and Leukemia Inhibition factor (GIBCO, Life technologies, MA, USA). Once the cells acquired its differentiated morphology, they were treated with the peptides mentioned above at the following concentrations for 1 hour: all peptides, except Ac-SEQ ID NO: 8-NH2, at 0.001 mg/mL, 0.005 mg/mL and 0.01 mg/mL; and peptide Ac-SEQ ID NO: 8-NH2 at 0.005 mg/mL and 0.05 mg/mL. Cells were then washed with HEPES, before stimulation of acetylcholine release by depolarization with external 50 mM KCl solution. Non-stimulated cells were incubated with non-depolarizing 4 mM KCl solution. After 30 minutes of incubation with the corresponding depolarizing or non-depolarizing KCl solution, cell supernatants were collected and used to measure acetylcholine levels with Amplex Red Acetylcholine Assay Kit (ThermoFisher Scientific, MA, USA). Cell pellets were used to determine protein content by BCA Protein Test Assay (Pierce BCA Protein Assay kit, ThermoFisher Scientific, MA, USA) (for data normalization purposes).
Percentage of acetylcholine release inhibition was calculated considering 100% release for the positive control (non-treated stimulated with KCl cells).

The target of another assay is Munc18/Syntaxin-1 (Homo sapiens, UniProt Q16623). As to the kind of experiment: ELISA-based in vitro Munc18/Syntaxin-1 binding assay. As to conditions: peptide 0.1, 0.5 and 1 mM; Munc18 100 nM, Syntaxin-1 10 and 5 nM; control = 100% binding. As for the experimental part: The capacity of the peptides to inhibit Munc18 protein-protein interaction with Syntaxin-1, a SNARE complex protein, was functionally evaluated by means of an ELISA-based in vitro Munc18/Syntaxin-1 binding assay. Briefly, the above-mentioned peptides at 0.1, 0.5 and 1 mM were preincubated with their target protein Syntaxin-1 (GST-tagged) at 10 and 5 nM in buffer (20 mM Hepes, 150 mM NaCl, 2 mM MgC2, 2 mM DTT, 0.5% Triton-X100 and 0.5% non-fat milk) for 3 hours at RT. Meanwhile, His-tagged Munc18 was bound to a Nickel-coated 96-well plate at 100 nM and incubated at RT for 1.5 hours. Non-bound protein was subsequently washed away before blocking wells with non-fat milk in wash buffer (PBS+0.02% Triton-X100) for additional 30 minutes. GST-tagged Syntaxin-1 preincubated with the peptides was then added at 10 and 5 nM to the plate and incubated for 2 h at RT. Wells were washed three times with wash buffer before incubation with the primary antibody (GST tag polyclonal antibody—Thermofisher Scientific, Massachusetts, USA) for 45 minutes. Finally, after washing again, HRP-conjugated secondary antibody (Anti-Rabbit-IgG-HRP—Sigma, Missouri, USA) was added and incubated at RT. TMB substrate (3,3′,5,5′-Tetramethylbenzidine) was used to develop signal. […] Amount of binding of Syntaxin-1 protein to Munc18 protein was analysed by measuring absorbance at 450 nm.
For orientation: ELISA stands for enzyme-linked immunosorbent assay.

Assay [1] deals with human skeletal muscle myocytes. As to the kind of experiment: Gene expression modulation in skeletal muscle human myocytes (RTqPCR contractility gene panel). It counts as cell-based. As to conditions: 24 hours, vs basal control. The method, then: Said peptides were tested to evaluate their capacity to modulate the expression of several genes related with muscle contraction and relaxation in human skeletal muscle myocytes (Lodish H, Berk A, Zipursky S L, et al. (2000), Molecular Cell Biology, 4th edition; Section 18.3 Myosin: The Actin Motor Protein, Nueva York, W. H. Freeman; Kuo, I Y, & Ehrlich, B E (2015), Signaling in Muscle Contraction, Cold Spring Harbor Perspectives in Biology, 7(2); RAPSN receptor associated protein of the synapse [Homo sapiens (human)], Gene ID in NCBI 5913; Blake D J, Tinsley J M, Davies K E (1996), Utrophin: a structural and functional comparison to dystrophin, Brain Pathol., 6(1):37-47; Barik A, Lu Y, Sathyamurthy A, et.al. (2014), LRP4Is Critical for Neuromuscular Junction Maintenance, The Journal of Neuroscience, 34(42), 13892-13905; Kim N, Stiegler A L, Cameron T O, Hallock P T, et.al. (2008), Lrp4 is a Receptor for Agrin and Forms a Complex with MuSK, Cell, 135(2), 334-342; Mahavadi S, Nalli A, Kumar D, et.al. (2014), Increased expression of caveolin-1 is associated with upregulation of the RhoA/Rho kinase pathway and smooth muscle contraction in diabetes (1110.11), The FASEB Journal, 28:1_supplement)). To that end, a contractility smart data gene panel was designed. Said contractility smart data gene panel analyses the expression of the genes related with muscular contraction and relaxation included in table 5.
Briefly, human skeletal muscle myoblasts were seeded in duplicate in 12-well culture plates at a density of 1×10^5 cells/well and maintained at standard culture conditions (37° C., 95% humidity, 5% CO2) for 48-72h. Myoblast differentiation to myocyte was then induced with specific differentiation media (SKM-D medium+1% Antibiotic-Antimycotic) and monitored for 7 more days. Differentiated cells were treated with 0.05 mg/mL of peptide Ac-SEQ ID NO: 5-NH2; or with 0.1 mg/mL of peptide Ac-SEQ ID NO: 10-NH2 for 24 hours; or with 0.05 and 0.5 mg/mL of peptide Ac-SEQ ID NO: 8-NH2 for 6h; or with 0.5 mg/mL of peptide Ac-SEQ ID NO: 8-NH2 for 24 h. Untreated cells were used as basal control. Cells were then lysed for RNA extraction with a RNA purification commercial kit following manufacturer instructions (RNeasy mini kit, Qiagen, Netherlands). RNA was then quantified by nanodrop, adjusted in concentration and processed for retrotranscription to cDNA using a commercially available kit (High-Capacity cDNA Reverse Transcription kit, Thermofisher Scientific, USA). Resulting cDNA was used to perform a RTqPCR (Real Time Quantitative Polymerase Chain Reaction) using taqman technology and a panel of probes designed to target the specific genes related to muscle contractility mentioned in table 4.

Sequence of Munc18/Syntaxin-1 (Q16623 whole entry): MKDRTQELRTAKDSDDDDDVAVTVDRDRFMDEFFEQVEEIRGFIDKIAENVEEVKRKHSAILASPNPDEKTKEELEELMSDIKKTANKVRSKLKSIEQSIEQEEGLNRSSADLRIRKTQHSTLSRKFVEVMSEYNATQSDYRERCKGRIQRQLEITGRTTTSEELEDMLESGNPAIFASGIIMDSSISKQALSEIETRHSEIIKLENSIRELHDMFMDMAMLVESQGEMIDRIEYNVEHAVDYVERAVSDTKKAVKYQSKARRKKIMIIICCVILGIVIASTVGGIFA

As for “Ac-His-Ile-Met-Asp-Phe-Trp-NH2 (Ac-HIMDFW-NH2) [Ac-SEQ ID NO: 6-NH2]”, the “Result: modulation of acetylcholine release” value (shortened to “Result: modulation”) with LAN cells was “Active in the modulation of”.

Turning to “Ac-His-Ile-Met-Asp-Trp-Trp-NH2 (Ac-HIMDWW-NH2) [Ac-SEQ ID NO: 9-NH2]”, in the assay on LAN cells, the “Result: modulation” value was “Active in the modulation of”.

For the substance “Ac-Arg-Met-Arg-Phe-NH2 (Ac-RMRF-NH2) [Ac-SEQ ID NO: 11-NH2]”, the “Result: modulation” value in the assay on LAN cells was “Active in the modulation of”.

As for “Ac-Glu-Arg-Ile-Asn-Lys-Arg-Arg-Trp-NH2 (Ac-ERINKRRW-NH2) [Ac-SEQ ID NO: 13-NH2]”, in the assay with LAN cells, the “Result: modulation” value was “not able to inhibit the release of acetylcholine; also recorded: Non-active in the modulation”.

“Ac-His-Ile-Leu-Asp-Trp-Trp-NH2 (Ac-HILDWW-NH2) [Ac-SEQ ID NO: 7-NH2]”: the “Result: modulation” value with LAN cells was “Active in the modulation of”.

For the substance “Ac-His-Ile-Leu-Asp-Met-Trp-NH2 (Ac-HILDMW-NH2) [Ac-SEQ ID NO: 5-NH2]”, in the assay on LAN cells, the “Result: modulation” value is recorded as “Active in the modulation of”. For the same substance, the “Maximum inhibition of Munc18-Syntaxin-1 binding” value with Munc18/Syntaxin-1 amounted to 67%. Also, in assay [1] (0.05 mg/mL), the ACTA1 gene expression result is listed as “downregulation”, the MYH1 gene expression entry is reported as “downregulation”, the RAPSN gene expression entry was “downregulation” and the SCN3A gene expression result is “downregulation”. Also, in assay [1] (0.05 mg/mL), the TNNC1 gene expression result was “downregulation” and the UTRN gene expression result is “downregulation”.

Take “Ac-Glu-Arg-Ile-Asn-Lys-Met-Arg-Tyr-NH2 (Ac-ERINKMRY-NH2) [Ac-SEQ ID NO: 14-NH2]”: the “Result: modulation” value in the assay on LAN cells is listed as “not able to inhibit the release of acetylcholine; also recorded: Non-active in the modulation”.

For “Ac-Arg-Arg-Arg-Phe-NH2 (Ac-RRRF-NH2) [Ac-SEQ ID NO: 10-NH2]”, the “Result: modulation” value in the assay with LAN cells was “Active in the modulation of”. Moreover, in assay [1] (0.1 mg/mL), the CACNB1 gene expression entry is “downregulation”, the CHRNA1 gene expression entry is on record as “downregulation”, the SCN3A gene expression entry was “downregulation” and the TNNC1 gene expression result is reported as “downregulation”. For the same substance, in assay [1] (0.1 mg/mL), the UTRN gene expression entry is given as “downregulation”.
